# PubChem BioAssay (NCI)
#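 Method: 48-hour compound exposure of cells in 96-well plates, five concentrations, linear interpolation of endpoints. Here, GI50 denotes the concentration required for 50% inhibition of growth. TGI marks complete inhibition of growth.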
# Key:
# Test in all cases: growth of human tumour cells (NCI), 48 h
# OVCAR-3 ovarian = system: OVCAR-3 ovarian
# T-47D breast = system: T-47D breast
# SNB-19 CNS = system: SNB-19 CNS
# KM12 colon = system: KM12 colon
# LOX IMVI melanoma = system: LOX IMVI melanoma
# UACC-257 melanoma = system: UACC-257 melanoma
# A549 NSCLC = system: A549 NSCLC
# SF-268 CNS = system: SF-268 CNS
# CCRF-CEM leukemia = system: CCRF-CEM leukemia
# RPMI-8226 leukemia = system: RPMI-8226 leukemia
# HL-60(TB) leukemia = system: HL-60(TB) leukemia
# ACHN renal = system: ACHN renal
# SK-OV-3 ovarian = system: SK-OV-3 ovarian
# MDA-MB-435 = system: MDA-MB-435
# SR leukemia = system: SR leukemia
# IGROV1 ovarian = system: IGROV1 ovarian
# MOLT-4 leukemia = system: MOLT-4 leukemia
# A498 renal = system: A498 renal
# MCF7 breast = system: MCF7 breast
# HCT-116 colon = system: HCT-116 colon
# BT-549 breast = system: BT-549 breast
# NCI/ADR-RES ovarian = system: NCI/ADR-RES ovarian
# SF-295 CNS = system: SF-295 CNS
# UO-31 renal = system: UO-31 renal
# NCI-H522 lung = system: NCI-H522 lung
# RXF 393 renal = system: RXF 393 renal
# SN12C renal = system: SN12C renal
# SK-MEL-2 melanoma = system: SK-MEL-2 melanoma
# DU-145 prostate = system: DU-145 prostate
# U251 CNS = system: U251 CNS
# HOP-62 NSCLC = system: HOP-62 NSCLC
# OVCAR-5 ovarian = system: OVCAR-5 ovarian
# CAKI-1 renal = system: CAKI-1 renal
# EKVX NSCLC = system: EKVX NSCLC
# UACC-62 melanoma = system: UACC-62 melanoma
# HS 578T breast = system: HS 578T breast
# SW-620 colon = system: SW-620 colon
# TK-10 renal = system: TK-10 renal
# M14 melanoma = system: M14 melanoma
# HT29 colon = system: HT29 colon
# NCI-H226 lung = system: NCI-H226 lung
# SF-539 CNS = system: SF-539 CNS
# MALME-3M melanoma = system: MALME-3M melanoma
# COLO 205 colon = system: COLO 205 colon
# MDA-MB-231 breast = system: MDA-MB-231 breast
# SK-MEL-28 melanoma = system: SK-MEL-28 melanoma
# HCT-15 colon = system: HCT-15 colon
# OVCAR-4 ovarian = system: OVCAR-4 ovarian
# SNB-75 CNS = system: SNB-75 CNS
# NCI-H23 lung = system: NCI-H23 lung
# HCC-2998 colon = system: HCC-2998 colon
# SK-MEL-5 melanoma = system: SK-MEL-5 melanoma
# OVCAR-8 ovarian = system: OVCAR-8 ovarian
# HOP-92 NSCLC = system: HOP-92 NSCLC
# 786-0 renal = system: 786-0 renal
# PC-3 prostate = system: PC-3 prostate
# NCI-H460 lung = system: NCI-H460 lung
smiles,measurement,setting,value
COc1cc2c(=O)n(CCN)c3c4cc5c(cc4ccc3c2cc1OC)OCO5,GI50,OVCAR-3 ovarian,0.919 µM
same,TGI,OVCAR-3 ovarian,2.26 µM
same,GI50,T-47D breast,0.508 µM
same,TGI,T-47D breast,16.8 µM
same,GI50,SNB-19 CNS,0.414 µM
same,TGI,SNB-19 CNS,1.97 µM
same,GI50,KM12 colon,0.913 µM
same,TGI,KM12 colon,2.47 µM
same,GI50,LOX IMVI melanoma,0.362 µM
same,TGI,LOX IMVI melanoma,1.78 µM
same,GI50,UACC-257 melanoma,1.92 µM
same,TGI,UACC-257 melanoma,13.3 µM
same,GI50,A549 NSCLC,0.626 µM
same,TGI,A549 NSCLC,2.36 µM
same,GI50,SF-268 CNS,0.423 µM
same,TGI,SF-268 CNS,2.14 µM
same,GI50,CCRF-CEM leukemia,0.182 µM
same,GI50,RPMI-8226 leukemia,0.356 µM
same,TGI,RPMI-8226 leukemia,2.37 µM
same,GI50,HL-60(TB) leukemia,1.24 µM
same,TGI,HL-60(TB) leukemia,3.53 µM
same,GI50,ACHN renal,0.363 µM
same,TGI,ACHN renal,1.52 µM
same,GI50,SK-OV-3 ovarian,1.24 µM
same,TGI,SK-OV-3 ovarian,12 µM
same,GI50,MDA-MB-435,0.894 µM
same,TGI,MDA-MB-435,2.29 µM
same,GI50,SR leukemia,0.0907 µM
same,TGI,SR leukemia,1.03 µM
same,GI50,IGROV1 ovarian,0.467 µM
same,TGI,IGROV1 ovarian,2.07 µM
same,GI50,MOLT-4 leukemia,0.0671 µM
same,TGI,MOLT-4 leukemia,0.863 µM
same,GI50,A498 renal,1.24 µM
same,TGI,A498 renal,2.64 µM
same,GI50,MCF7 breast,0.175 µM
same,TGI,MCF7 breast,1.53 µM
same,GI50,HCT-116 colon,0.285 µM
same,TGI,HCT-116 colon,1.31 µM
same,GI50,BT-549 breast,1.06 µM
same,TGI,BT-549 breast,2.7 µM
same,GI50,NCI/ADR-RES ovarian,1.26 µM
same,TGI,NCI/ADR-RES ovarian,3.6 µM
same,GI50,SF-295 CNS,0.306 µM
same,TGI,SF-295 CNS,4.08 µM
same,GI50,UO-31 renal,0.605 µM
same,TGI,UO-31 renal,2.1 µM
same,GI50,NCI-H522 lung,0.167 µM
same,TGI,NCI-H522 lung,1.83 µM
same,GI50,RXF 393 renal,1.02 µM
same,TGI,RXF 393 renal,2.56 µM
same,GI50,SN12C renal,0.723 µM
same,TGI,SN12C renal,2.32 µM
same,GI50,SK-MEL-2 melanoma,3.69 µM
same,TGI,SK-MEL-2 melanoma,16.5 µM
same,GI50,DU-145 prostate,0.488 µM
same,TGI,DU-145 prostate,1.83 µM
same,GI50,U251 CNS,0.287 µM
same,TGI,U251 CNS,1.75 µM
same,GI50,HOP-62 NSCLC,0.444 µM
same,TGI,HOP-62 NSCLC,2.27 µM
same,GI50,OVCAR-5 ovarian,1.16 µM
same,TGI,OVCAR-5 ovarian,2.59 µM
same,GI50,CAKI-1 renal,0.382 µM
same,TGI,CAKI-1 renal,5.94 µM
same,GI50,EKVX NSCLC,1.47 µM
same,TGI,EKVX NSCLC,3.51 µM
same,GI50,UACC-62 melanoma,0.332 µM
same,TGI,UACC-62 melanoma,1.96 µM
same,GI50,HS 578T breast,2.8 µM
same,TGI,HS 578T breast,11.7 µM
same,GI50,SW-620 colon,0.23 µM
same,TGI,SW-620 colon,2.07 µM
same,GI50,TK-10 renal,1.62 µM
same,TGI,TK-10 renal,3.28 µM
same,GI50,M14 melanoma,0.425 µM
same,TGI,M14 melanoma,1.89 µM
same,GI50,HT29 colon,0.222 µM
same,TGI,HT29 colon,1.65 µM
same,GI50,NCI-H226 lung,1.43 µM
same,TGI,NCI-H226 lung,3.59 µM
same,GI50,SF-539 CNS,0.893 µM
same,TGI,SF-539 CNS,2.25 µM
same,GI50,MALME-3M melanoma,0.692 µM
same,TGI,MALME-3M melanoma,2.2 µM
same,GI50,COLO 205 colon,0.352 µM
same,TGI,COLO 205 colon,2.11 µM
same,GI50,MDA-MB-231 breast,1.23 µM
same,TGI,MDA-MB-231 breast,2.66 µM
same,GI50,SK-MEL-28 melanoma,2.09 µM
same,TGI,SK-MEL-28 melanoma,6.17 µM
same,GI50,HCT-15 colon,0.651 µM
same,TGI,HCT-15 colon,2.19 µM
same,GI50,OVCAR-4 ovarian,0.902 µM
same,TGI,OVCAR-4 ovarian,2.55 µM
same,GI50,SNB-75 CNS,0.892 µM
same,TGI,SNB-75 CNS,3.35 µM
same,GI50,NCI-H23 lung,0.683 µM
same,TGI,NCI-H23 lung,2.51 µM
same,GI50,HCC-2998 colon,1.08 µM
same,TGI,HCC-2998 colon,2.47 µM
same,GI50,SK-MEL-5 melanoma,0.834 µM
same,TGI,SK-MEL-5 melanoma,2.15 µM
same,GI50,OVCAR-8 ovarian,0.988 µM
same,TGI,OVCAR-8 ovarian,3.91 µM
same,GI50,HOP-92 NSCLC,3.31 µM
same,TGI,HOP-92 NSCLC,18 µM
same,GI50,786-0 renal,0.464 µM
same,TGI,786-0 renal,1.97 µM
same,GI50,PC-3 prostate,0.591 µM
same,TGI,PC-3 prostate,2.27 µM
same,GI50,NCI-H460 lung,0.236 µM
same,TGI,NCI-H460 lung,1.25 µM
